Test results reported in the kinase profiling compilation of Christmann-Franck et al. (2016).
Where “and” joins values, the source holds several entries; their conditions need not be identical. Equal entries are not always repeated.

Key:
Assay in all cases: radiometric filter-binding kinase assay, Kinase HotSpot
Details in all cases: compound 0.5 µM; ATP 10 µM
ADRBK2 (human) = ADRBK2 (human) (UniProt P35626)
AKT3 (human) = AKT3 (human) (UniProt Q9Y243)
ALK (human) = ALK (human) (UniProt Q9UM73)
CAMK1D (human) = CAMK1D (human) (UniProt Q8IU85)
CDC42BPB (human) = CDC42BPB (human) (UniProt Q9Y5S2)
CDK9 CCNT1 (human) = CDK9 CCNT1 (human) (UniProt P50750+O60563)
CHUK (human) = CHUK (human) (UniProt O15111)
CLK3 (human) = CLK3 (human) (UniProt P49761)
CSNK1E (human) = CSNK1E (human) (UniProt P49674)
CSNK2A2 (human) = CSNK2A2 (human) (UniProt P19784)
EPHA2 (human) = EPHA2 (human) (UniProt P29317)
EPHA5 (human) = EPHA5 (human) (UniProt P54756)
EPHA5 (human), sequence (P54756 whole entry, looked up): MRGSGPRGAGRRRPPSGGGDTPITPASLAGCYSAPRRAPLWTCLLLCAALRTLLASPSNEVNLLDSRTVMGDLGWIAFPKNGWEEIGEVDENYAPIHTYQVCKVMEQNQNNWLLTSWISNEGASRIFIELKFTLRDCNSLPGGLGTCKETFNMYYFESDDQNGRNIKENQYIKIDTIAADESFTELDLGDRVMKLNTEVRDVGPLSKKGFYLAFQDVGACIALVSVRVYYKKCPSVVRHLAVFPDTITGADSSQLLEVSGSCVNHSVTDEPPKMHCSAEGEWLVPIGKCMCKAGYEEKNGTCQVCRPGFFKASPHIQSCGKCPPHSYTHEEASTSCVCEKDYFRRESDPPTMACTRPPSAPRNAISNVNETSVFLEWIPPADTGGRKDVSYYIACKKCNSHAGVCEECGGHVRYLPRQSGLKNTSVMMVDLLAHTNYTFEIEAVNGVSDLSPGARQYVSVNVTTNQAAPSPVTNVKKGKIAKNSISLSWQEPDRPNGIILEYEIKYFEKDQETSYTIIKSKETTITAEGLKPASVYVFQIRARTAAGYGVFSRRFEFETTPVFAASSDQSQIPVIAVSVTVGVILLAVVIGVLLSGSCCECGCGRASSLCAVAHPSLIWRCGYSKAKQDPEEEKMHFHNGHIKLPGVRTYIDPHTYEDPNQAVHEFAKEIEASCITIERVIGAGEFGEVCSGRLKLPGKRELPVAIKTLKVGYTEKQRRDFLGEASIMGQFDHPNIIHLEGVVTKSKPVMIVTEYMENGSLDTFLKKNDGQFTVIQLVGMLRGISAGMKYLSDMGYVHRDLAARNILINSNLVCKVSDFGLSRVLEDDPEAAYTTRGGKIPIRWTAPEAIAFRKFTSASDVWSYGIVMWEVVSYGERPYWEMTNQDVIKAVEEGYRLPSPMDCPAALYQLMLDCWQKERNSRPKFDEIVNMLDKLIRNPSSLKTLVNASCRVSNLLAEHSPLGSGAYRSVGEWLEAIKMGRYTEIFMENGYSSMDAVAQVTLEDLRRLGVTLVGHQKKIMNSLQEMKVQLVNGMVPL

ERBB4 (human) = ERBB4 (human) (UniProt Q15303)
FGFR4 (human) = FGFR4 (human) (UniProt P22455)
GRK4 (human) = GRK4 (human) (UniProt P32298)
HIPK3 (human) = HIPK3 (human) (UniProt Q9H422)
IKBKB (human) = IKBKB (human) (UniProt O14920)
IKBKB (human), sequence (O14920 whole entry, looked up): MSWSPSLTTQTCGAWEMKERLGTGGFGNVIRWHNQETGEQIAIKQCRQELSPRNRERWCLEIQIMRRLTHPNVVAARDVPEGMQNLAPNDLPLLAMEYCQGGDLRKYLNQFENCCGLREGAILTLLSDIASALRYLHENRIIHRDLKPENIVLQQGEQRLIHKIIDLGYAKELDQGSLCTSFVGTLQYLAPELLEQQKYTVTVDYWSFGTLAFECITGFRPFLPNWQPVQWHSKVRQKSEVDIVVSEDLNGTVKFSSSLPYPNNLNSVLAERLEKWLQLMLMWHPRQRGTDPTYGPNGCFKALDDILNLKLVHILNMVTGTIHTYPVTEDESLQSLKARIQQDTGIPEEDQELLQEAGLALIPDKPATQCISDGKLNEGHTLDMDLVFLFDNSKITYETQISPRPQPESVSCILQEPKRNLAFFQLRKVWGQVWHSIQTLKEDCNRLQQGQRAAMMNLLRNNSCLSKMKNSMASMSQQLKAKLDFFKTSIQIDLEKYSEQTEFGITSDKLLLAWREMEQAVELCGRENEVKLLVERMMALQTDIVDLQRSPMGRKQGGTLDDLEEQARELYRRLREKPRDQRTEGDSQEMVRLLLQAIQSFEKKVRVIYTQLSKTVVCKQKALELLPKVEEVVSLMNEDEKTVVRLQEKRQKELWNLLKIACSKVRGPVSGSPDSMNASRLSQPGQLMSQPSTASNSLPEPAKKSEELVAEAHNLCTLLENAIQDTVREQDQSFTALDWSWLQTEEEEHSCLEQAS

MAP3K11 (human) = MAP3K11 (human) (UniProt Q16584)
MAPK1 (human) = MAPK1 (human) (UniProt P28482)
MAPK12 (human) = MAPK12 (human) (UniProt P53778)
MAPK13 (human) = MAPK13 (human) (UniProt O15264)
MAPK13 (human), sequence (O15264 whole entry, looked up): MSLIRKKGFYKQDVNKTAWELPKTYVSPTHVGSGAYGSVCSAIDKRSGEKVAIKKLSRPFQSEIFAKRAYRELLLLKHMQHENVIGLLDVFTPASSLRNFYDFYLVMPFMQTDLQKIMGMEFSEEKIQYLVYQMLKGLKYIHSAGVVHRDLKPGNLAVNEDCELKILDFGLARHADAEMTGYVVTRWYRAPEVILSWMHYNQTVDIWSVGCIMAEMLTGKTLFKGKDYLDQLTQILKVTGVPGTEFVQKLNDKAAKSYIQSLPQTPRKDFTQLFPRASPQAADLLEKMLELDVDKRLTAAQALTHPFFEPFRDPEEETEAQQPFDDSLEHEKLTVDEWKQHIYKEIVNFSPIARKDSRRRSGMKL

MAPK3 (human) = MAPK3 (human) (UniProt P27361)
MARK4 (human) = MARK4 (human) (UniProt Q96L34)
MARK4 (human), sequence (Q96L34 whole entry, looked up): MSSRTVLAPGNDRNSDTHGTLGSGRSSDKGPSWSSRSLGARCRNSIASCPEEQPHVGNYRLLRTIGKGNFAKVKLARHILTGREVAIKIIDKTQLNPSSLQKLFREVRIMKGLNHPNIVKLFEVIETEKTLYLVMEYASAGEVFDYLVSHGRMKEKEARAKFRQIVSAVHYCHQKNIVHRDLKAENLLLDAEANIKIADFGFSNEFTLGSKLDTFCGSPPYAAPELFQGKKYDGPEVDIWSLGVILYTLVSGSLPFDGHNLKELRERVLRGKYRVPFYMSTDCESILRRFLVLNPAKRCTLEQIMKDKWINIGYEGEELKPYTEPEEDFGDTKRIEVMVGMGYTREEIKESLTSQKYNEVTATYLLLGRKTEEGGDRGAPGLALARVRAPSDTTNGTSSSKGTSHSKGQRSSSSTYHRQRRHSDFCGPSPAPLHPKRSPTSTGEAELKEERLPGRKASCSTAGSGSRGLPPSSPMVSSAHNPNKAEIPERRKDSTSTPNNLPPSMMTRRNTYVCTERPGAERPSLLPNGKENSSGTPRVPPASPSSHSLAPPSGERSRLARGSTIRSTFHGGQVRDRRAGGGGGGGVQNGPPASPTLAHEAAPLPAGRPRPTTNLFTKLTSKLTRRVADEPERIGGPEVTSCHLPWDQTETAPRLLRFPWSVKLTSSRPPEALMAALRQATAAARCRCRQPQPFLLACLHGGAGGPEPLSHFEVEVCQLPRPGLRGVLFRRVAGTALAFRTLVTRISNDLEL

NLK (human) = NLK (human) (UniProt Q9UBE8)
NTRK1 (human) = NTRK1 (human) (UniProt P04629)
NTRK2 (human) = NTRK2 (human) (UniProt Q16620)
PAK3 (human) = PAK3 (human) (UniProt O75914)
PKN2 (human) = PKN2 (human) (UniProt Q16513)
PRKACA (human) = PRKACA (human) (UniProt P17612)
PRKCE (human) = PRKCE (human) (UniProt Q02156)
PRKCE (human), sequence (Q02156 whole entry, looked up): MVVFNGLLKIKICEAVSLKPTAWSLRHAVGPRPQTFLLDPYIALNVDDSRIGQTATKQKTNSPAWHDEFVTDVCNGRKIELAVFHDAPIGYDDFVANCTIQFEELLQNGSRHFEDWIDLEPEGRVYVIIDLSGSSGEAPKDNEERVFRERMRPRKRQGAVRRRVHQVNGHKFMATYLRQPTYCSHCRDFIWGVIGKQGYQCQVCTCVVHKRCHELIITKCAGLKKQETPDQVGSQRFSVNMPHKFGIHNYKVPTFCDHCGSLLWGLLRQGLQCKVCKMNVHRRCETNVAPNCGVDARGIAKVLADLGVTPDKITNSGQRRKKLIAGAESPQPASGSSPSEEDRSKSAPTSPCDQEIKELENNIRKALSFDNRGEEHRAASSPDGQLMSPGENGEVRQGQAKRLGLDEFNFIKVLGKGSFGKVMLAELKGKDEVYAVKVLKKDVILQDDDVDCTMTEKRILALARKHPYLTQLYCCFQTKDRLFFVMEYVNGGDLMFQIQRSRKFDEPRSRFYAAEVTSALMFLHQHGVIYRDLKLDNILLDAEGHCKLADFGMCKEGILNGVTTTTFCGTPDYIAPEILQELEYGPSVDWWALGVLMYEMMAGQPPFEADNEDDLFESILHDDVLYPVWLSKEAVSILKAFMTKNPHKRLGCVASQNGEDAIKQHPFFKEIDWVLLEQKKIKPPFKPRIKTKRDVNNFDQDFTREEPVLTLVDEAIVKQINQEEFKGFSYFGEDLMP

PRKCG (human) = PRKCG (human) (UniProt P05129)
PRKG1 (human) = PRKG1 (human) (UniProt Q13976)
PRKG1 (human), sequence (Q13976 whole entry, looked up): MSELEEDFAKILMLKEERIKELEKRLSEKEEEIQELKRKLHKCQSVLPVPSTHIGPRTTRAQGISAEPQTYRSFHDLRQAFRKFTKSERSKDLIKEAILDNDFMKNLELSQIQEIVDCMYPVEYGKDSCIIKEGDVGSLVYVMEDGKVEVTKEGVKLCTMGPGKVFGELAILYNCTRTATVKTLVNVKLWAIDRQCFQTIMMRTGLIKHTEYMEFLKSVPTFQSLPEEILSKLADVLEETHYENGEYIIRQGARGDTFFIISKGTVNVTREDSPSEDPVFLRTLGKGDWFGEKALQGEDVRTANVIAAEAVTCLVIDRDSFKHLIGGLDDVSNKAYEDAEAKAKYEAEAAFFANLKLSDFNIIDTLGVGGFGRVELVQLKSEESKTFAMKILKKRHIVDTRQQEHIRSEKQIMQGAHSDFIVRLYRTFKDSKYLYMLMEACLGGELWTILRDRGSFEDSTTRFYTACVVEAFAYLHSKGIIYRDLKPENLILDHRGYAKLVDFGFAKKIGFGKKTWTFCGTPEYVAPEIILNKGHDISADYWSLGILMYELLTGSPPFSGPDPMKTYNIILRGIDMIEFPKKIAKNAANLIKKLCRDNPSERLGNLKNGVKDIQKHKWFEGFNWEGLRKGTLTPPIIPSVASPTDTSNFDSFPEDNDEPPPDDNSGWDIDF

PRKG2 (human) = PRKG2 (human) (UniProt Q13237)
ROCK2 (human) = ROCK2 (human) (UniProt O75116)
STK11 (human) = STK11 (human) (UniProt Q15831)
TGFBR2 (human) = TGFBR2 (human) (UniProt P37173)
TSSK1B (human) = TSSK1B (human) (UniProt Q9BXA7)
ULK1 (human) = ULK1 (human) (UniProt O75385)
WNK3 (human) = WNK3 (human) (UniProt Q9BYP7)
CDK5 CDK5R1 p35 (human) = CDK5 CDK5R1 p35 (human) (UniProt Q00535+Q15078)
NTRK3 (human) = NTRK3 (human) (UniProt Q16288)
RAF1 (human) = RAF1 (human) (UniProt P04049)

`COc1ccc(COc2ccc(Cc3cnc(N)nc3N)cc2OC)cc1` gave a residual activity (ADRBK2 (human)) of 103%, a residual activity (AKT3 (human)) of 96.5% and a residual activity (ALK (human)) of 97.4%. It also gave a residual activity (CAMK1D (human)) of 93%, a residual activity (CDC42BPB (human)) of 96.9% and a residual activity (CDK9 CCNT1 (human)) of 92.5%. The residual activity (CHUK (human)) was 94.7%, the residual activity (CLK3 (human)) was 98.3% and the residual activity (CSNK1E (human)) was 97.1%. It also gave a residual activity (CSNK2A2 (human)) of 97.4%, a residual activity (EPHA2 (human)) of 107% and a residual activity (EPHA5 (human)) of 111%. It also gave a residual activity (ERBB4 (human)) of 110%, a residual activity (FGFR4 (human)) of 99.7% and a residual activity (GRK4 (human)) of 106%. It also gave a residual activity (HIPK3 (human)) of 102%, a residual activity (IKBKB (human)) of 99.9% and a residual activity (MAP3K11 (human)) of 101%. The residual activity (MAPK1 (human)) was 110%, the residual activity (MAPK12 (human)) was 102% and the residual activity (MAPK13 (human)) was 96%. The residual activity (MAPK3 (human)) was 99.1%, the residual activity (MARK4 (human)) was 89.7% and the residual activity (NLK (human)) was 105%. The residual activity (NTRK1 (human)) was 51.3%, the residual activity (NTRK2 (human)) was 31.2% and the residual activity (PAK3 (human)) was 102%. The residual activity (PKN2 (human)) was 90.9%, the residual activity (PRKACA (human)) was 104% and the residual activity (PRKCE (human)) was 95.7%. The residual activity (PRKCG (human)) was 102%, the residual activity (PRKG1 (human)) was 91.7% and 98.3% and the residual activity (PRKG2 (human)) was 104%. It also gave a residual activity (ROCK2 (human)) of 84.1%, a residual activity (STK11 (human)) of 103% and a residual activity (TGFBR2 (human)) of 127%. It also gave a residual activity (TSSK1B (human)) of 95.2%, a residual activity (ULK1 (human)) of 99.7% and a residual activity (WNK3 (human)) of 100%.
`c1ccc(-c2n[nH]cc2-c2ccnc3ccccc23)nc1` showed a residual activity (ADRBK2 (human)) of 103%, a residual activity (AKT3 (human)) of 92.6% and a residual activity (ALK (human)) of 111%. For the same molecule, the residual activity (CAMK1D (human)) was 100%, the residual activity (CDC42BPB (human)) was 102% and the residual activity (CDK5 CDK5R1 p35 (human)) was 98.6%. It also gave a residual activity (CDK9 CCNT1 (human)) of 80%, a residual activity (CHUK (human)) of 94.2% and a residual activity (CLK3 (human)) of 105%. It also gave a residual activity (CSNK1E (human)) of 53.9%, a residual activity (CSNK2A2 (human)) of 96.7% and a residual activity (EPHA2 (human)) of 103%. For the same molecule, the residual activity (EPHA5 (human)) was 94.9%, the residual activity (ERBB4 (human)) was 85.7% and the residual activity (FGFR4 (human)) was 80.6%. For the same molecule, the residual activity (GRK4 (human)) was 94.3%, the residual activity (HIPK3 (human)) was 97% and the residual activity (IKBKB (human)) was 105%. For the same molecule, the residual activity (MAP3K11 (human)) was 96.5%, the residual activity (MAPK1 (human)) was 108% and the residual activity (MAPK12 (human)) was 106%. It also gave a residual activity (MAPK13 (human)) of 110%, a residual activity (MAPK3 (human)) of 101% and a residual activity (MARK4 (human)) of 105%. For the same molecule, the residual activity (NLK (human)) was 79.8%, the residual activity (NTRK1 (human)) was 102% and the residual activity (NTRK2 (human)) was 112%. The residual activity (NTRK3 (human)) was 92.7%, the residual activity (PAK3 (human)) was 99.7% and the residual activity (PKN2 (human)) was 91.4%. It also gave a residual activity (PRKACA (human)) of 107%, a residual activity (PRKCE (human)) of 101% and a residual activity (PRKCG (human)) of 117%. For the same molecule, the residual activity (PRKG1 (human)) was 86% and 92.7%, the residual activity (PRKG2 (human)) was 89.2% and the residual activity (RAF1 (human)) was 89.5%. For the same molecule, the residual activity (ROCK2 (human)) was 100%, the residual activity (STK11 (human)) was 82.6% and the residual activity (TGFBR2 (human)) was 109%. The residual activity (TSSK1B (human)) was 104% and the residual activity (ULK1 (human)) was 85.9%.
